US8940909B2, “Indicator platform” (Biosynth AG, priority 2009, dated 2015)

How the values were obtained:
enteric bacterial cells = assay: MDAB staining of bacterial colonies with indicators I4a and I5a on Tryptic Soy Agar, aerobic and anaerobic; assay type: cell-based; settings: Salmonella manhattan (b-gal −); aR MDAB, equivalents 1:1; TSAYE with 40 mg/100 ml of indicator
Experimental: Tryptic Soy Agar (TSA) with yeast extract (0.6%) was used as the base plating medium. The media were autoclaved at 121° C. for 15 minutes and placed in a 50° C. water bath to cool. Indicators were added to the basal medium at a final concentration of 40 mg/100 ml (from 80 mg/ml stock solutions in DMF). Over night cultures of enteric bacterial cells in Brain Heart Infusion Broth were streaked onto the plates and incubated at 35° C. for 24 hours under aerobic and anaerobic conditions. After incubation, the colonial morphologies on the plates were recorded (Table III).
Weak staining was observed occasionally due to residual oxygen (micro-anaerobic conditions). Under aerobic conditions indigo (IN-stains) generally dominated the effects of MDAB staining. For example indicator system I4a/MDAB stained colonies violet under anaerobic but indigo blue under aerobic conditions.

[1] = system: beta-D-galactosidase positive/negative bacteria; assay: IO staining of colonies of beta-D-galactosidase positive/negative bacteria (Table IVb), hue named in column head; assay type: cell-based; settings: hue of fluorescence of stained colonies; 24 h on Nutrient Agar, 150 mg/l indicator, 100 mg/l IPTG
[2] = biological target: E. coli beta-galactosidase (Escherichia coli, UniProt P00722)
E. coli beta-galactosidase, sequence (P00722 2-1024): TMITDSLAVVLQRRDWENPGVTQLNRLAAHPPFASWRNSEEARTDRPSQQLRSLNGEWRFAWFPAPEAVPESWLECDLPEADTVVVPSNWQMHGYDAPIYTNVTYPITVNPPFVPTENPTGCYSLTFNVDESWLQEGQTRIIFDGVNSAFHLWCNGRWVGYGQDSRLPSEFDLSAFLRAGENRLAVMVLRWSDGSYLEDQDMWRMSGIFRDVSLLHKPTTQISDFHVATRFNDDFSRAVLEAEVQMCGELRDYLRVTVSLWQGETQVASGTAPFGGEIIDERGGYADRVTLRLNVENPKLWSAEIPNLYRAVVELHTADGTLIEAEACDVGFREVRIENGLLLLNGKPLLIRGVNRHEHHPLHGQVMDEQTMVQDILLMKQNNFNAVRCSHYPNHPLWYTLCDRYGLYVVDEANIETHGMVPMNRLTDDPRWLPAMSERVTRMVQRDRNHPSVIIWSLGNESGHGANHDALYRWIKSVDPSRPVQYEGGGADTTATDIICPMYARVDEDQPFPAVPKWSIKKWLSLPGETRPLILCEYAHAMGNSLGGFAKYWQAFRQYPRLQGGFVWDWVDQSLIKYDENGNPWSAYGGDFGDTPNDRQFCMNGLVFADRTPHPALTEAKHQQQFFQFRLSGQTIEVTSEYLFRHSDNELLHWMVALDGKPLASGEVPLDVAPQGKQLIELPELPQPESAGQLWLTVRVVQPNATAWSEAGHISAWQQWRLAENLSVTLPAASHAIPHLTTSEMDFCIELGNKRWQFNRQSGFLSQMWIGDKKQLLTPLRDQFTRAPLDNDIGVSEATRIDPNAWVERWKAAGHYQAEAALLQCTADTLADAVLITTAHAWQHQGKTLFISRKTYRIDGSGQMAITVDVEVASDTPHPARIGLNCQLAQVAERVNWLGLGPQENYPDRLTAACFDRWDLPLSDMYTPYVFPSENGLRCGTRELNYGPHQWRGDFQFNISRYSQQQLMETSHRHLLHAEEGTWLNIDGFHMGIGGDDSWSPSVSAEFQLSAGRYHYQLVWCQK
Experimental: Enzymatic reactions were performed in 100 mM Na2PO4 buffer, pH 7.3 containing 1 mM MgCl2 and 670 mg/l enzyme substrate. E. coli beta-galactosidase or K. lactis lactase were added to a final concentration of 1000 U/I or 1500 U/I, respectively. 30 ml reaction volumes were incubated for 5-18 hours at 37° C. with gentle shaking. The reaction product was collected by centrifugation (4400 g, 15 min), pellets were washed with 10 ml H2O and centrifuged again (4400 g, 15 min).

Salmonella illa 73 = assay: IO staining of colonies of beta-D-galactosidase positive/negative bacteria (Table IVb); assay type: cell-based; settings: Salmonella illa strain 73, b-gal +; 24 h on Nutrient Agar, 150 mg/l indicator, 100 mg/l IPTG; note: key: −: absent; +/−: weak; +: strong; ++: very strong
Escherichia coli = assay: IN and IO staining of bacterial colonies under anaerobic conditions; assay type: cell-based; settings: for D: Diffusion around colonies / G: Growth of colonies / I: Intensity of color / L: Localization on colonies / S: Size of colonies: Nutrient Agar plates, anaerobically incubated with E. coli
Experimental: Nutrient Agar plates containing 150 mg/l of various substrates and 100 mg/l IPTG were inoculated with Escherichia coli. Plates were put in an anaerobic jar (Anaerojar, Oxoid), an AnaeroGen sachet (Oxoid) was added, the jar was closed and incubated for 24 hours at 37° C.
IN staining cannot be used under anaerobic conditions.

Salmonella bongori 81 = assay: IO staining of colonies of beta-D-galactosidase positive/negative bacteria (Table IVb); assay type: cell-based; settings: Salmonella bongori strain 81, b-gal +; 24 h on Nutrient Agar, 150 mg/l indicator, 100 mg/l IPTG; for C: Color of colonies: key: −: absent; +/−: weak/variable; +: strong; for G: Growth of colonies: key: −: absent; +/−: weak; +: strong; ++: very strong
Klebsiella pneumoniae = assay: IO staining of bacterial colonies on Blood Agar plates; assay type: cell-based; settings: 24 h on Blood Agar, 150 mg/l I21a and 100 mg/l IPTG; for Growth: key: −: absent; +/−: weak; +: strong; ++: very strong
Experimental: Standard commercially available Blood Agar plates were impregnated with 150 mg/l 1-(2-benzoylphenyl)-6-chloro-1H-indol-3-yl-beta-D-galactopyranoside (I21a) and 100 mg/l IPTG. The plate was inoculated with Klebsiella pneumoniae.
IO stain contrasts very well with the agar plate. Further, despite the quenching effect of blood IO fluorescence is fully maintained and readily detectable.

[3] = system: beta-galactosidase positive Eschericha coli (NM1); assay: IO staining of bacterial colonies on Nutrient Agar (color, fluorescence, localization, growth); for C: Color of colonies (strength): key: −: absent; +/−: weak; +: strong; ++: very strong; for F: Fluorescence of colonies (strength): key: −: absent; +/−: weak; +: strong; ++: very strong; for G: Growth of colonies: key: −: absent; +/−: weak; +: strong; ++: very strong; for L: Localization of stain on colonies: key: −: absent; +/−: weak; +: strong; ++: very strong; assay type: cell-based, E. coli; settings: 150 mg/l substrate and 100 mg/l IPTG
Experimental: (§1) Nutrient Agar (5 g/l peptone, 5 g/l NaCl, 2 g/l yeast extract, 1 g/l beef extract, 13 g/l agar, pH 7.4) was autoclaved and allowed to cool to 50° C. Then indicators were added to final concentrations of 150 mg/l (from a 20 mg/ml stock solution in DMF).
(§2) Optionally IPTG was added to 100 mg/l (from a 100 mg/ml stock solution in H2O) and plates were poured. Agar plates were inoculated with cultures of beta-galactosidase positive Eschericha coli (NM1) or beta-galactosidase negative Salmonella enteritidis (RKI 05/07992) (pre-grown on nutrient broth for 8-18 hours) and incubated at 37° C. Plates were inspected at 16, 20, 24 and 48 hours and pictures were recorded at 18, 24, and 48 hours with a Digistore 2 Image documentation system (CAMAG) under white light.
(§3) A considerable number of indicators molecules (Table IVa, IVb) and a selection of labile groups (Table IVc) were tested with various microbial species producing different biomarker enzymes (external stimuli, eS). The color of stains ranges from yellow to red.
(§4) Plating media from Example 10 were examined under 366 nm UV irradiation at 16, 20, 24 and 48 hours for fluorescence by means of Digistore 2 Image documentation system (CAMAG). Loops of bacterial cells, grown for 48 hours on Nutrient Agar plates containing 150 mg/l beta-D-galactosidase indicator and 100 mg/l IPTG, were directly streaked into wells of black clear bottom microtiter plates. Fluorescence scans were recorded on a Spectramax M5 (Molecular Devices).

[4] = system: beta-galactosidase negative Salmonella enteritidis (RKI 05/07992); assay type: cell-based; settings: S. enteritidis (b-gal negative), 24 h, 150 mg/l substrate and 100 mg/l IPTG; note: key: −: absent; +/−: weak; +: strong; ++: very strong
Experimental: as §1, §2, §3, §4

| Compound | F: Fluorescence of colonies (hue) [1] | C: Color of colonies (Salmonella illa 73) | F: Fluorescence of colonies (Salmonella illa 73) | G: Growth of colonies (Salmonella illa 73) | D: Diffusion around colonies (Escherichia coli) | G: Growth of colonies (Escherichia coli) | I: Intensity of color (Escherichia coli) | L: Localization on colonies (Escherichia coli) | S: Size of colonies (Escherichia coli) | C: Color of colonies (Salmonella bongori 81) | F: Fluorescence of colonies (Salmonella bongori 81) | G: Growth of colonies (Salmonella bongori 81) | other results |
| --- | --- | --- | --- | --- | --- | --- | --- | --- | --- | --- | --- | --- | --- |
| 5-Bromo-4-chloro-1H-indol-3-yl-beta-D-galactopyranoside [Indicator I4a, reference compound] | − | − | − | + | ++ | +/− | +/− | − | pinpoint | +/− | − | + | colonial morphology, aerobic conditions (enteric bacterial cells): Cream colored colonies; colonial morphology, microaerobic (anaerobic) conditions (enteric bacterial cells): Cream colored colonies; Signal upon incubation with beta-D-galactosidase in the absence of oxygen ([2]; blend with MDAB, absence of oxygen): pink dye; IN staining under anaerobic conditions (Escherichia coli; E. coli, anaerobic): failure |
| O=C(c1ccccc1)c1ccccc1-n1cc(O[C@@H]2O[C@H](CO)[C@H](O)[C@H](O)[C@H]2O)c2ccc(Cl)cc21 [Indicator I21a, 1-(2-Benzoylphenyl)-6-chloro-1H-indol-3-yl-beta-D-galactopyranoside] | y-g | − | − | + | +/− | + | + | + | 0.7 mm | +/− | +/− | + | Color of colonies UV (366 nm) (Klebsiella pneumoniae): Yellow-orange on a dark background; Color of colonies white/visible (Klebsiella pneumoniae): Yellow; Growth (Klebsiella pneumoniae): +; Product of incubation with beta-D-galactosidase ([2]; 24 h): bright yellow precipitate |
| COc1ccc(C(=O)c2ccccc2-n2cc(O[C@@H]3O[C@H](CO)[C@H](O)[C@H](O)[C@H]3O)c3c(Cl)c(Br)ccc32)c(OC)c1 [Indicator I28a, 5-Bromo-4-chloro-1-[2-(2,4-dimethoxybenzoyl)phenyl]-1H-indol-3-yl-beta-D-galactopyranoside] |  | − | − | + |  |  |  |  |  | +/− | − | + | F: Fluorescence of colonies (colour) ([3]; 24 h, 366 nm UV): (red); C: Color of colonies (colour of stain) ([3]; 24 h on Nutrient Agar): orange; G: Growth of colonies ([3]; E. coli, 24 h): +; L: Localization of stain on colonies ([3]; E. coli, 24 h): +; F: Fluorescence of colonies (strength) ([3]; E. coli, 24 h, 366 nm UV): +/−; C: Color of colonies (strength) ([3]; E. coli, 24 h on Nutrient Agar): +; C: Color of colonies (strength) [4]: −; F: Fluorescence of colonies (strength) ([4]; 366 nm UV): − |
